The record followed here is patent US9303019B2, “Amino-pyrroline derivatives, and use thereof in the prevention and/or treatment of metabolic syndrome” (UNIVERSITE DE STRASBOURG, priority 2012, dated 2016).

The test system of assay [1] is SHHF rats. The assay is described as follows: Chronic treatment: arterial pressure and heart rate in SHHF rats. Type of assay: in vivo, rat. To be noted: 20 mg/kg/d in drinking water, 12 weeks. As for the experimental part: Male SHHF rats (spontaneously hypertensive, heart failure) aged 12 weeks were used for this study (Charles River breeding centre, L'Arbresle, France).
The animals were placed in a room with controlled temperature and light, had free access to tap water and were fed a standard diet (A04, SAFE, Augy, France). This study was conducted in agreement with institutional recommendations and the rules laid down by the European Community for the use of experimental animals (L358-86/609/EEC).
Compound 1 was administered in the drinking water for 12 weeks at a dose of 20 mg/kg/d (n=17). Water consumption was regularly measured to adjust the concentration of compound 1. Non-treated control SHHF rats had access to normal water (n=10).
Body weight, water and food intake were measured every day. […] Three days later, arterial pressure and heart rate were recorded and a glucose tolerance test was performed.
The rats were anesthetized with pentobarbital 50 mg/kg, i.p. (Céa santé animale, Libourne, France) and tracheotomized. […] Arterial pressure was recorded after stabilization with a pressure transducer (Gould P23XL) and recorder (Gould Electronics BS 272, Longjumeau, France). Mean arterial pressure (MAP) was calculated as diastolic pressure plus one third of differential arterial pressure. Heart rate was also recorded from the pressure signal using a Gould Biotach amplifier (model 13-4615-66).

The target of assay [2] is I1 receptor (Rattus norvegicus, UniProt Q4G017). Nature of the assay: Competitive binding to [125I]-PIC in membranes of PC12 cells. To be noted: PC12 cell membranes. The method, then:
The PC-12 cells were cultured in 75-cm^2 dishes in DMEM medium (1000 mg/l glucose) supplemented with 10% FBS inactivated by treatment at 56° C., 100 U/ml penicillin and 100 μg/ml streptomycin. When the cells reached confluence (3 to 4 days after the start of culture) they were harvested and passaged via the action of 0.25% trypsin for 2 minutes at 37° C. For the specific binding assays, the medium was removed and the cells stored by freezing to −20° C. until use with the membrane preparation.
The frozen PC12 cells were recovered by scraping in ice-cold Tris-HEPES buffer (5 mM Tris-HEPES, pH 7.7, 0.5 mM EDTA, 0.5 mM EGTA and 0.5 mM MgCl2) and Potter homogenized. After centrifuging at 75,000 g for 20 min, the residue was washed in ice-cold Tris-HEPES buffer then again centrifuged. This last operation was performed twice. […]
The reaction was halted by rapid vacuum filtration through GF/B fibre glass filters treated with 0.3% PEI using filtering equipment of Brandel® type, followed by three rapid washings of the filters using 3 ml of ice-cold 50 mM Tris-HCl buffer, pH 7.4. The radioactivity retained on the dried filters was determined using a Minaxi gamma counter (Packard, Meriden, CT, USA). Non-specific binding was determined by [^125I]PIC binding in the presence of 10 μM PIC and represented about 43% of total radioactivity.

The target of assay [3] is I1 receptor (Homo sapiens, UniProt Q9Y2I1). The assay is described as follows: Specific binding assay of the I1 receptor on human platelets with [125I]LNP 911. As for the experimental part:
Binding assays were performed at 37° C. using [^125I]LNP 911 as radioligand following the general procedure described but adapted to washed whole platelets (Greney, H.; Urosevic, D.; Schann, S.; Dupuy, L.; Bruban, V.; Ehrhardt, J,-D.; Bousquet, P.; Dontenwill, M. [^125I]2-(2-Chloro-4-iodo-phenylamino)-5-methyl-pyrroline (LNP911), a High-Affinity Radioligand Selective for I1 Imidazoline Receptors. Mol. Pharmacol. 2002, 62, 181-191).
Incubation was initiated through the addition of 900 to 950 μl of platelet suspension at a concentration of 500000/μl in a final volume of 1 ml Tyrode albumin and was performed at 37° C. for 5 min (equilibrium conditions). The competitive assays were conducted using a single concentration of radioligand ([…], 200 000 cpm), in the presence of increasing concentrations of suitable non-labelled ligand. Non-specific binding was determined by the binding of [^125I]LNP 911 in the presence of 100 nM of non-labelled LNP 911 and represented about 10% of total radioactivity when […] of [^125I]LNP 911 were used.
The reaction was halted by rapid vacuum filtration through GF/C fibre glass filters followed by five rapid washings of the filters with 3 ml of ice-cold Tyrode ([…], pH 7.35). Radioactivity was measured using a gamma counter (Wallac 1410).
The competitive assays were analyzed by non-linear regression using the GraphPad programme.
Ki values were determined using the method described by Cheng and Prussof (Cheng, Y. C.; Prusoff, W. H. Relationship between the Inhibition Constant (Ki) and the Concentration of Inhibitor which causes 50 percent Inhibition (I50) of an Enzymatic Reaction. Biochem. Pharmacol. 1973, 22, 3099-3108).

Chain of I1 receptor (Homo sapiens, UniProt Q9Y2I1) (Q9Y2I1 2-1504 limits assumed): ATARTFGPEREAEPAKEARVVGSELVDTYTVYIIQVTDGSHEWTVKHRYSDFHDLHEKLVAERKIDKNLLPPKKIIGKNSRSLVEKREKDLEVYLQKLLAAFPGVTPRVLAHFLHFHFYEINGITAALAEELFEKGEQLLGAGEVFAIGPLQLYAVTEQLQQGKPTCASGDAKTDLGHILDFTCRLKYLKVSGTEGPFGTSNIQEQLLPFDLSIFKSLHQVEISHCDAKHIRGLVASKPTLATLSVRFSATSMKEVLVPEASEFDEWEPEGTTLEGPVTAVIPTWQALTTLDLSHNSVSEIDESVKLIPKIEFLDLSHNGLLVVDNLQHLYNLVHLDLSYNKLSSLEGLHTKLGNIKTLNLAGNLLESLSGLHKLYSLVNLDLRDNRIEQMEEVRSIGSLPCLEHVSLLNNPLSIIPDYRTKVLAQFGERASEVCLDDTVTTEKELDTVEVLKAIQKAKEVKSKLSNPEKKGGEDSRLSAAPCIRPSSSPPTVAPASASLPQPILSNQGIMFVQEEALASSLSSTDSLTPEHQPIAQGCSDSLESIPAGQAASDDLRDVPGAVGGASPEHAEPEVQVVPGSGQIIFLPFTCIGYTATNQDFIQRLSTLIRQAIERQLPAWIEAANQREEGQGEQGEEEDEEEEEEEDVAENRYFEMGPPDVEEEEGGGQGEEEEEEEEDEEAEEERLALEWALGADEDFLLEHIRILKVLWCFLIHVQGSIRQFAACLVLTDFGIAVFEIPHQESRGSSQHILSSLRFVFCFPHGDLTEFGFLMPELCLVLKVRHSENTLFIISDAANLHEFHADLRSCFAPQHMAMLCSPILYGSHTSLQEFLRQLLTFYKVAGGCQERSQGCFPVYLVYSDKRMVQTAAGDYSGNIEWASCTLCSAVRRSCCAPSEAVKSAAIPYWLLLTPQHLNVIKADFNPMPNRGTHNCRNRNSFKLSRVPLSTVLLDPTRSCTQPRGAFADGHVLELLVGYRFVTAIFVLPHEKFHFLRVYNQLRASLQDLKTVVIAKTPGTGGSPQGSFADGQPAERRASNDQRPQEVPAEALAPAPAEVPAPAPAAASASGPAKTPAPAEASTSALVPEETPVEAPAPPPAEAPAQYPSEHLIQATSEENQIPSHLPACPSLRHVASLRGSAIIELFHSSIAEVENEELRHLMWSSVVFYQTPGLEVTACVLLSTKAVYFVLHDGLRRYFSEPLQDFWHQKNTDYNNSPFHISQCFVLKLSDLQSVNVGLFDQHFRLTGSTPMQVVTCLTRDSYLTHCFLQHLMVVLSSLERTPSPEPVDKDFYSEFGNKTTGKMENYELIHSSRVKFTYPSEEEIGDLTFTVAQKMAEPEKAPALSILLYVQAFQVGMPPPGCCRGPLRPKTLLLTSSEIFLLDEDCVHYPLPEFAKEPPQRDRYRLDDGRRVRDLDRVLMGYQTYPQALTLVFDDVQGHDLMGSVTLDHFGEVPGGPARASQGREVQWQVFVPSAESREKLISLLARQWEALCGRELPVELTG
Chain of I1 receptor (Rattus norvegicus, UniProt Q4G017) (Q4G017 whole entry, looked up): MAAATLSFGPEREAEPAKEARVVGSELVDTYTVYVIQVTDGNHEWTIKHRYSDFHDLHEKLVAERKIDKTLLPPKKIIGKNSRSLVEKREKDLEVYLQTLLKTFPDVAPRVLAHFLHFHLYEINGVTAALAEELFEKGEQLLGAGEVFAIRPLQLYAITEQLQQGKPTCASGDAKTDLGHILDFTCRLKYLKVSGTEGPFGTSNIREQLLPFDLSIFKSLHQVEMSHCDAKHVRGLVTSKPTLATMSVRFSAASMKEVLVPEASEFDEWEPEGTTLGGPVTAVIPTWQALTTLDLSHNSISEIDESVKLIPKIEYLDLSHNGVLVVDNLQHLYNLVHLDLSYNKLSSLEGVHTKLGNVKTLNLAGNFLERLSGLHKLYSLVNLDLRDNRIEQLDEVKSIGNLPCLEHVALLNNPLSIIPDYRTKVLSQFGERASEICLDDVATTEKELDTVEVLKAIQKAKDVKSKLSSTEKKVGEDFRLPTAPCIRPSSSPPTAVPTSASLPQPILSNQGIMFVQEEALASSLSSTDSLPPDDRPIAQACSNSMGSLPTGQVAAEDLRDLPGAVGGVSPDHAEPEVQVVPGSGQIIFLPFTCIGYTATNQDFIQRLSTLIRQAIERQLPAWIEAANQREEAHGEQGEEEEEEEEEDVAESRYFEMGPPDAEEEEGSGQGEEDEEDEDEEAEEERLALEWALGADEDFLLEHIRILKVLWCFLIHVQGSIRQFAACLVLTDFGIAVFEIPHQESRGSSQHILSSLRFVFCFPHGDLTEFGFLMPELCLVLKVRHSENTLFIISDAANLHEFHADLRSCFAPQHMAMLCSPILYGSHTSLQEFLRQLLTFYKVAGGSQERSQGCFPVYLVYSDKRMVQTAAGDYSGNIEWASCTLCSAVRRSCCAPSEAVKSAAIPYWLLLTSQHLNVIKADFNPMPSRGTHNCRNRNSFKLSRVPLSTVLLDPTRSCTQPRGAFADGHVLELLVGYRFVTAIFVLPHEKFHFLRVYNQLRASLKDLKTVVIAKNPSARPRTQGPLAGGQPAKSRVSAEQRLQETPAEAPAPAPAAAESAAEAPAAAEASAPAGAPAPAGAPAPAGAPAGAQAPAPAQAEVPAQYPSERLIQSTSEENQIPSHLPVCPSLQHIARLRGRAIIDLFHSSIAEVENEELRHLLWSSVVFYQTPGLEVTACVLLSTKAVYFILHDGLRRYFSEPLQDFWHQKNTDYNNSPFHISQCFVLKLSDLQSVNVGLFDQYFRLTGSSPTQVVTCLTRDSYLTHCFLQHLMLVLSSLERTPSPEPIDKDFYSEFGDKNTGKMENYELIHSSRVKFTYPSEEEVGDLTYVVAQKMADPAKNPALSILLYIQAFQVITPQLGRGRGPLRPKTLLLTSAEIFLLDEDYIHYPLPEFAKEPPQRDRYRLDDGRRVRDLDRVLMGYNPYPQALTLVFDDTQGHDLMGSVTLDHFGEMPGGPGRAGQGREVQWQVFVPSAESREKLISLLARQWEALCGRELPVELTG

As a reminder, the Ki is the dissociation constant of the complex between target and ligand, obtained from inhibition or displacement. Higher therefore signals lower affinity. On to `Cc1c(Cl)cccc1NC1=NCC(C)C1.Cl` (stereo not shown) [Compound 1, (3-Chloro-2-methyl-phenyl)-(4-methyl-4,5-dihydro-3H-pyrrol-2-yl)-amine hydrochloride], for which the arterial pressure in assay [1] (control 176±6) was 153±7 mmHg. In assay [1] (control 361±8), this compound showed a heart rate of 367±6 bpm. In addition, the “share of sites with high affinity” value in assay [2] amounted to 55%. The compound further returned a Ki in assay [3] of 8.1 nM.
